Reference: paper PMC9232501, “Results of the phase I CCTG IND.231 trial of CX-5461 in patients with advanced solid tumors enriched for DNA-repair deficiencies” (Nature Communications, 2022)
Values joined by “and” are separate entries in the source; they are usually repeats but may differ in a detail not shown here. Equal entries are not always repeated.

Tested on: HCT116 cells
Assay: HCT116 cytotoxicity (WST-1 assay) with and without UVA radiation
Type: cell-based, Human
Details: for potentiation of UVA-induced cytotoxicity: UV 5 mJ/cm^2 and 125 mJ/cm^2; for WST-1 raw signal (Figure 5d) / WST-1 raw signal (Figure 5b): replicates
Protocol: Fig. 5 Comparison of G4 ligand photosensitization. […] Vertical axis, fractional survival, horizontal axis log10 drug concentration (M) (f) Representative images of CPD immunofluorescent staining under UV and drug treatment conditions for U2OS cells, quantified from biological duplicates in (g) (h) Scale bar = 100um. U2OS cells were treated with drug or vehicle control, then immediately irradiated with UVA 125 mJ/cm^2; and fixed 1 h later for immunofluorescence staining with CPD antibody. g Distribution of mean intensity of CPD level per cell (total n = in labels), with two biological repeats per condition. Vertical axis, mean CPD intensity per cell, horizontal axis, conditions (h) WT or KO XPA HAP1 cells assayed for cytotoxicity. Vertical axis, fractional survival (WST-1 assay). The horizontal axis, log10 drug concentration (M). Error bars = standard deviation of the mean. Three biological repeats per condition.
Human epidermal keratinocytes (HEKa) cells were sourced from Thermo Fisher Scientific, and were grown in EpiLife™ Medium with HKGS. HAP WT and XPA knockout cell lines (Horizon Discovery) were cultured in IMDM, 10% FCS. Human HCT116 cells, U2OS cells (ATCC) were grown in McCoy’s 5 A medium with 10% FBS and L-glutamine. All cell lines are mycoplasma free and have been authenticated by STR or SNP profiling. CX-5461 was provided by Senhwa Biosciences, Inc. PDS is from Sigma-Aldrich, BRACO-19 from Alfa Chemistry, PhENDC3 is from Sigma-Aldrich, γ -H2AX antibody from Abcam (1:1000 for IF) and CPD antibody (1:1500) from Cosmo Bio Ltd. (Catalog number: CAC-NM-DAD-001). The WST-1 assay was performed as previously described, γ H2AX foci staining was performed as previously described. Immunofluorescence staining of CPD was performed according to the protocol from the manufacturer (Cosmo Bio Ltd).

CN(C)c1ccc(Nc2c3ccc(NC(=O)CCN4CCCC4)cc3nc3cc(NC(=O)CCN4CCCC4)ccc23)cc1 [BRACO-19]
potentiation of UVA-induced cytotoxicity: not | WST-1 raw signal (Figure 5d) (conc 1.31e-6, 5mJ/cm2 UV): 2.4666 and 1.6857 | WST-1 raw signal (Figure 5d) (conc 1.31e-6, 125mJ/cm2 UV): 1.7146 and 2.5235 | WST-1 raw signal (Figure 5d) (conc 1.31e-6, no UV): 1.0028 and 1.1127 and 1.1944 | WST-1 raw signal (Figure 5d) (conc 2.63e-6, 5mJ/cm2 UV): 1.5923 and 2.1232 | WST-1 raw signal (Figure 5d) (conc 2.63e-6, 125mJ/cm2 UV): 1.7241 and 1.9009 | WST-1 raw signal (Figure 5d) (conc 2.63e-6, no UV): 1.0332 and 1.1578 and 1.2506 | WST-1 raw signal (Figure 5d) (conc 5.25e-6, 5mJ/cm2 UV): 2.5376 and 1.7122 | WST-1 raw signal (Figure 5d) (conc 5.25e-6, 125mJ/cm2 UV): 1.8158 and 1.6795 | WST-1 raw signal (Figure 5d) (conc 5.25e-6, no UV): 0.8877 and 1.1208 and 1.1731 | WST-1 raw signal (Figure 5d) (conc 1.05e-5, 5mJ/cm2 UV): 2.0499 and 1.7849 | WST-1 raw signal (Figure 5d) (conc 1.05e-5, 125mJ/cm2 UV): 1.734 and 1.5629 | WST-1 raw signal (Figure 5d) (conc 1.05e-5, no UV): 0.9118 and 1.1353 and 1.1139 | WST-1 raw signal (Figure 5d) (conc 2.1e-5, 5mJ/cm2 UV): 2.2151 and 1.3748 | WST-1 raw signal (Figure 5d) (conc 2.1e-5, 125mJ/cm2 UV): 1.3993 and 1.3857 | WST-1 raw signal (Figure 5d) (conc 2.1e-5, no UV): 0.9051 and 1.0979 and 1.0693 | WST-1 raw signal (Figure 5d) (conc 4.2e-5, 5mJ/cm2 UV): 1.7663 and 1.2587 | WST-1 raw signal (Figure 5d) (conc 4.2e-5, 125mJ/cm2 UV): 1.2502 and 1.0049 | WST-1 raw signal (Figure 5d) (conc 4.2e-5, no UV): 0.8968 and 1.0934 and 1.1351 | WST-1 raw signal (Figure 5d) (conc 8.4e-5, 5mJ/cm2 UV): 0.4969 and 0.3888 | WST-1 raw signal (Figure 5d) (conc 8.4e-5, 125mJ/cm2 UV): 0.4246 and 0.5991 | WST-1 raw signal (Figure 5d) (conc 8.4e-5, no UV): 0.3873 and 0.5407 and 0.5015 | WST-1 raw signal (Figure 5d) (conc 1.64E-07, 5mJ/cm2 UV): 2.3685 and 1.9812 | WST-1 raw signal (Figure 5d) (conc 1.64E-07, 125mJ/cm2 UV): 1.617 and 1.4273 | WST-1 raw signal (Figure 5d) (conc 1.64E-07, no UV): 1.0063 and 1.0872 and 1.153 | WST-1 raw signal (Figure 5d) (conc 3.28E-07, 5mJ/cm2 UV): 1.3974 and 1.689 | WST-1 raw signal (Figure 5d) (conc 3.28E-07, 125mJ/cm2 UV): 1.2981 and 1.6967 | WST-1 raw signal (Figure 5d) (conc 3.28E-07, no UV): 0.8955 and 1.1379 and 1.1636 | WST-1 raw signal (Figure 5d) (conc 6.56E-07, 5mJ/cm2 UV): 2.2078 and 2.2342 | WST-1 raw signal (Figure 5d) (conc 6.56E-07, 125mJ/cm2 UV): 1.8184 and 2.0816 | WST-1 raw signal (Figure 5d) (conc 6.56E-07, no UV): 1.0072 and 1.1785 and 1.064

CN1CCC[C@H]1CCNC(=O)c1cn2c3c(c(N4CCC(c5cnccn5)C4)c(F)cc3c1=O)Oc1cc3ccccc3cc1-2 (some centres unmarked) [CX-3543, quarfloxin]
potentiation of UVA-induced cytotoxicity: Strong potentiation | WST-1 raw signal (Figure 5b) (conc 1.00E-07, 5mJ/cm2 UV): 0.1176 and 0.1409 and 0.1492 | WST-1 raw signal (Figure 5b) (conc 1.00E-07, 125mJ/cm2 UV): 0.1326 and 0.1388 and 0.1325 | WST-1 raw signal (Figure 5b) (conc 1.00E-07, no UV): 0.3065 and 0.2985 and 0.3333 | WST-1 raw signal (Figure 5b) (conc 1.25E-08, 5mJ/cm2 UV): 0.2437 and 0.3248 and 0.2269 | WST-1 raw signal (Figure 5b) (conc 1.25E-08, 125mJ/cm2 UV): 0.1256 and 0.1309 and 0.1293 | WST-1 raw signal (Figure 5b) (conc 1.25E-08, no UV): 0.9466 and 1.0534 and 1.1298 | WST-1 raw signal (Figure 5b) (conc 1.56E-09, 5mJ/cm2 UV): 0.8994 and 0.9603 and 1.0971 | WST-1 raw signal (Figure 5b) (conc 1.56E-09, 125mJ/cm2 UV): 0.4201 and 0.4656 and 0.3751 | WST-1 raw signal (Figure 5b) (conc 1.56E-09, no UV): 1.1359 and 1.1204 and 1.1484 | WST-1 raw signal (Figure 5b) (conc 2.00E-07, 5mJ/cm2 UV): 0.1365 and 0.1282 and 0.1322 | WST-1 raw signal (Figure 5b) (conc 2.00E-07, 125mJ/cm2 UV): 0.1395 and 0.1322 and 0.1311 | WST-1 raw signal (Figure 5b) (conc 2.00E-07, no UV): 0.2081 and 0.2189 and 0.1938 | WST-1 raw signal (Figure 5b) (conc 2.50E-08, 5mJ/cm2 UV): 0.2095 and 0.1617 and 0.1535 | WST-1 raw signal (Figure 5b) (conc 2.50E-08, 125mJ/cm2 UV): 0.1433 and 0.1378 and 0.1358 | WST-1 raw signal (Figure 5b) (conc 2.50E-08, no UV): 0.8495 and 0.8987 and 0.779 | WST-1 raw signal (Figure 5b) (conc 3.13E-09, 5mJ/cm2 UV): 0.6485 and 0.7419 and 0.9883 | WST-1 raw signal (Figure 5b) (conc 3.13E-09, 125mJ/cm2 UV): 0.2369 and 0.2535 and 0.2676 | WST-1 raw signal (Figure 5b) (conc 3.13E-09, no UV): 1.0174 and 1.1372 and 1.1113 | WST-1 raw signal (Figure 5b) (conc 3.91E-10, 5mJ/cm2 UV): 1.0118 and 0.9721 and 1.5038 | WST-1 raw signal (Figure 5b) (conc 3.91E-10, 125mJ/cm2 UV): 0.8661 and 1.1363 and 0.97 | WST-1 raw signal (Figure 5b) (conc 3.91E-10, no UV): 1.0197 and 1.049 and 1.1065 | WST-1 raw signal (Figure 5b) (conc 5.00E-08, 5mJ/cm2 UV): 0.1533 and 0.1449 and 0.1376 | WST-1 raw signal (Figure 5b) (conc 5.00E-08, 125mJ/cm2 UV): 0.1545 and 0.1405 and 0.1347 | WST-1 raw signal (Figure 5b) (conc 5.00E-08, no UV): 0.5561 and 0.5613 and 0.5776 | WST-1 raw signal (Figure 5b) (conc 6.25E-09, 5mJ/cm2 UV): 0.5204 and 0.5393 and 0.4087 | WST-1 raw signal (Figure 5b) (conc 6.25E-09, 125mJ/cm2 UV): 0.1582 and 0.1598 and 0.1609 | WST-1 raw signal (Figure 5b) (conc 6.25E-09, no UV): 1.0374 and 1.1818 and 1.0522 | WST-1 raw signal (Figure 5b) (conc 7.81E-10, 5mJ/cm2 UV): 0.7587 and 1.1105 and 1.4362 | WST-1 raw signal (Figure 5b) (conc 7.81E-10, 125mJ/cm2 UV): 0.5029 and 0.7057 and 0.876 | WST-1 raw signal (Figure 5b) (conc 7.81E-10, no UV): 1.0762 and 1.1392 and 1.1311
